US20170095423A1, “Use of selectively moisture-adjusted tabletting material in the production of mechanically stable tablets which contain at least one hydrate-forming active substance and/or adjuvant relevant to the mechanical stability of the tablets, particularly arginine-containing tablets” (Boehringer Ingelheim International GmBH, priority 2012, published 2017)

Experiment: sorption/desorption (DVS) behaviour: phase transition of the hydrate-forming agent L-arginine
Assay type: physicochemical
Excerpt: DVS measurement: measurement of the water absorption of a sample as a function of relative humidity and temperature using a highly sensitive sorption scale.
Phase transition in hydrate-forming active substances or adjuvants: the relative humidity at which the hydrate-forming agent water (particularly water of crystallization) is incorporated and changes from an anhydrate or a lower-valency form into a higher valency hydrate form, or vice versa. This relative humidity is characteristic of the respective hydrate-forming agent; if a hydrate-forming agent incorporates water in several steps, there are several phase transitions in this substance. For example: phase transition for pure L-arginine: 38% r.h./25° C. with incorporation of about 1.5 mol of water per 1 mol of L-arginine; in mixtures comprising L-arginine the phase transition is typically between 38 and 40% r.h./25° C., but in the test formulation described herein by way of example it starts, at latest, at 40% r.h./25° C.
(sorption and desorption cycle; change water content vs. rel. humidity). Tablets produced from tabletting material pre-conditioned at 25° C./45% r.h. were subsequently stored in very different humidity ranges (arrows; for discussion of the cases 1-4 see the description herein).

## N=C(N)NCCC[C@H](N)C(=O)O [L-arginine]
25° C.
  phase transition (relative humidity at which water of crystallization is incorporated), sorption cycle: 38 % r.h.
  phase transition in the desorption cycle (release of water of crystallisation): < 30 % r.h.
38% r.h./25° C.
  water incorporated at phase transition: about 1.5 mol of water per 1 mol of L-arginine
At 40° C.
  relative humidity to ensure the phase transition, sorption cycle: about 47 % r.h.
